The values below are quoted from earlier work in patent US6573299B1, “Method and compositions for treatment of the aging eye” (Advanced Medical Instruments, priority 1999, dated 2003).

Data set [1] deals with tumor necrosis factor-alpha (TNF-alpha) and nitric oxide production.
A further data set has as its system retinal ganglion cells. The following applies: treated animals.
The conditions of data set [2]: long term high intake, greater than 1,000 mg/day.
For data set [3] the following is noted: diet of 6 mg of lutein per day.
Assay in data set [4]: not given
This is another data set of the same source.

On to `Oc1ccc(C=Cc2cc(O)cc(O)c2)cc1` [Resveratrol, 3,5,4′-trihydroxystilbene], for which the “TNF-alpha and nitric oxide production” value in data set [1] is “inhibit tumor necrosis factor-alpha (TNF-alpha) and nitric oxide production”. In addition, the “nitric oxide synthase inhibition” value with nitric oxide synthase is given as “suppresses nitric oxide synthase”.
`N=C(N)NN` [aminoguanidine]: the “loss of retinal ganglion cells” value in the data set on retinal ganglion cells is listed as “reduction in the loss of retinal ganglion cells”.
As to `O=C1O[C@H]([C@@H](O)CO)C(O)=C1O` [ascorbic acid], in data set [2], the risk of cataracts result is reported as “substantially reduced risk of cataracts”.
Consider `CCCCCCCCCCCCCCCC(=O)OC[C@H](O)[C@H]1OC(=O)C(O)=C1O` [ascorbyl palmitate], for which, for the setting “5% lotion”, the “erythema from UV injured skin” value was “effective in reducing erythema”. Also, under “skin pretreated topically, lecithin gel base, compared to untreated skin”, the “erythema after exposure to UVB” value is listed as “decreased erythema”.
For `CC1=C[C@H](O)CC(C)(C)[C@H]1/C=C/C(C)=C/C=C/C(C)=C/C=C/C=C(C)/C=C/C=C(C)/C=C/C1=C(C)C[C@@H](O)CC1(C)C` [lutein], the “lower prevalence of AMD” value in data set [3] is 43%.
In the case of Zinc, in data set [4] (clinical trial, high-dose zinc supplementation), the “loss of visual acuity in patients with AMD” value is reported as “reduction in the loss of visual acuity”. The AMD entry in data set [4] (study published in 1988) is reported as “improved AMD”. Besides, the “nitric oxide synthase inhibition” value with nitric oxide synthase is listed as “very potent inhibitor”.
